{
  "source": "patent US4861763A",
  "about": "“17 α-(substituted-methyl)-17β-hydroxy/esterified hydroxy steroids and their progestational use” (Research Triangle Institute, priority 1988, dated 1989)",
  "key": {"progesterone receptor": {"biological_target": "T1, progesterone receptor (Oryctolagus cuniculus, UniProt P06186)", "T1 construct": "cytosol obtained from estrogen-primedimmature rabbit uterus; from tissue; host or cells: uterus cytosol of estrogen-primed immature rabbits", "T1 sequence (P06186 1-930)": "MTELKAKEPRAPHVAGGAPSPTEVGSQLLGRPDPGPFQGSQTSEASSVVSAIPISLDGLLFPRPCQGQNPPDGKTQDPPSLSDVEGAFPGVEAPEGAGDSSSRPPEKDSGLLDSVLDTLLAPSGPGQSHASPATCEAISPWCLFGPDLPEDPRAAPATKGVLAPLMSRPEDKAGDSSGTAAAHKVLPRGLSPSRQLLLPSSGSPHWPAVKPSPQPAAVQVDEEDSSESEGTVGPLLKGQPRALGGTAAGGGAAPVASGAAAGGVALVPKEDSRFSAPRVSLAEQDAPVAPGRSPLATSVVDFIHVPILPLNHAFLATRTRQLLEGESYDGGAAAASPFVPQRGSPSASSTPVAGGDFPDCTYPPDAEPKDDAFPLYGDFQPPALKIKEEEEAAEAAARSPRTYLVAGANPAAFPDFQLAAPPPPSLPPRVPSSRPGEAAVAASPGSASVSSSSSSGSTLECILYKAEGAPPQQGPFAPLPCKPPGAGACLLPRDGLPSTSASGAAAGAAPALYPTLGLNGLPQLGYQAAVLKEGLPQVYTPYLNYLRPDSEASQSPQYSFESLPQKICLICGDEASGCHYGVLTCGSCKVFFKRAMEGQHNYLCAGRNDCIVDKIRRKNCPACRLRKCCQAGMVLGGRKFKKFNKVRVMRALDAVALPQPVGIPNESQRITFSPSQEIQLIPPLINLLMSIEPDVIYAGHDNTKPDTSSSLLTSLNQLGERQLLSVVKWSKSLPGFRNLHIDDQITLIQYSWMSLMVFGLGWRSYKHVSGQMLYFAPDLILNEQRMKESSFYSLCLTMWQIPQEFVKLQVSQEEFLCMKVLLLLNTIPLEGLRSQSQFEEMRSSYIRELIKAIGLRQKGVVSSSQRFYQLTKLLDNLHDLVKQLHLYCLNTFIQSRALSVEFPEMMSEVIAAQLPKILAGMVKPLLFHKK", "assay": "relative binding affinity (RBA) for progesterone receptor in cytosol of estrogen-primed immature rabbit uterus", "conditions": "relative to progesterone = 100; average of 1-3 assays", "procedure": "(§1) concentrations) with cytosol containing the receptor and a tritiumlabeled\n(§2) required to displace 50% of bound radioligand is determined graphically"}, "glucocorticoid receptor": {"biological_target": "T2, glucocorticoid receptor (Rattus norvegicus, UniProt P06536)", "T2 construct": "glucocorticoid receptor from thymus of adrenalectomized rats; from tissue; host or cells: thymus cytosol of adrenalectomized rats", "T2 sequence (P06536 1-795)": "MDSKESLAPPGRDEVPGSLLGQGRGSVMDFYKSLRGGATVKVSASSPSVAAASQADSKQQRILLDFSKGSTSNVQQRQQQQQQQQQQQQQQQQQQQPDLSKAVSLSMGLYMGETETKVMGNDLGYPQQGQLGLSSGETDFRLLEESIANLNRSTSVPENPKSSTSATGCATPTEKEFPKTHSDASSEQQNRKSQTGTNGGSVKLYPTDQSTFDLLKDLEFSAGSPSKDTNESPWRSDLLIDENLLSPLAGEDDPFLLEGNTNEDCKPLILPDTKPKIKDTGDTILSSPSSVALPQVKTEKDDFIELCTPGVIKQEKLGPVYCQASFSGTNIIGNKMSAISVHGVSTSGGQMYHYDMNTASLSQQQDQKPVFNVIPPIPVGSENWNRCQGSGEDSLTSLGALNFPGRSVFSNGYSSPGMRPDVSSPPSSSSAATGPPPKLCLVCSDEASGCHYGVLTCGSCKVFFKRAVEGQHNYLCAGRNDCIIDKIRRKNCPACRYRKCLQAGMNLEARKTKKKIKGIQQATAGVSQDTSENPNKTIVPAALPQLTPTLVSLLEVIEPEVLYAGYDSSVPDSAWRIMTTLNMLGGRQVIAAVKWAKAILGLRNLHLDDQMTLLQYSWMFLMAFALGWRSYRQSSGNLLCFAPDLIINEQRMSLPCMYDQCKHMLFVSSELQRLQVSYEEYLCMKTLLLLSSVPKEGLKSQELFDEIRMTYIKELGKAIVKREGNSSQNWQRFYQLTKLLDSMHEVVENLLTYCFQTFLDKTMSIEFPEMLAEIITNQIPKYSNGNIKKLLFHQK", "assay": "relative binding affinity (RBA) for glucocorticoid receptor from thymus of adrenalectomized rats", "conditions": "for RBA for Glucocorticoid receptor: relative to dexamethasone = 100, average of 1-3 assays; for binding to the glucocorticoid receptor, times the RBA of dexamethasone: compared with dexamethasone", "procedure": "as §1, §2"}, "estrogen receptor": {"biological_target": "T3, estrogen receptor (Rattus norvegicus, UniProt P06211)", "T3 construct": "estrogen receptor from immature rat uterus; from tissue; host or cells: uterus cytosol of immature rats", "T3 sequence (P06211 1-600)": "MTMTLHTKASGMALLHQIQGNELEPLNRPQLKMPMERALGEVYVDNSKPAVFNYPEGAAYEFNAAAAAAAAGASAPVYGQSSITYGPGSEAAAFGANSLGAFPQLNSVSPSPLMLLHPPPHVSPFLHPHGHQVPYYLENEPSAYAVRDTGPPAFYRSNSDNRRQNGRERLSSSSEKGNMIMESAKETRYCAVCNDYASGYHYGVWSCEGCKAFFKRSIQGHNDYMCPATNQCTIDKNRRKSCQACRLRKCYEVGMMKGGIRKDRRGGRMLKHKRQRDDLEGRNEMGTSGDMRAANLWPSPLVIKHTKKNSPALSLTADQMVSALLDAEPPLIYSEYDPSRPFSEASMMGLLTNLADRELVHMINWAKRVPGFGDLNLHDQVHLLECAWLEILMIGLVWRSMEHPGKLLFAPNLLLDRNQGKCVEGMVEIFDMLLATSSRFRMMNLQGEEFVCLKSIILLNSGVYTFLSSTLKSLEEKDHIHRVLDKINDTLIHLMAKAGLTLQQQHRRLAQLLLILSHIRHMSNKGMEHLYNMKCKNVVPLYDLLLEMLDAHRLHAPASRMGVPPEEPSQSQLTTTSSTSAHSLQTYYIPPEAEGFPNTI", "assay": "relative binding affinity (RBA) for estrogen receptor from immature rat uterus", "procedure": "as §1, §2"}, "[1]": {"tested_on": "endometrial response due to subcutaneous administration of progesterone", "assay": "in vivo antiprogestational activity, intrauterine (McGinty test)", "set-up": "species or system rabbit", "description": "(§3) The antiprogestational activity of compound XVa was studied after both intrauterine and oral administration. […] The methodology used for the intrauterine test has been described by D. A. McGinty et al [Endocrinology, 24, 829 (1939)]. For oral administration of test compounds the method used was analogous to that of Clauberg [Clauberg, Zentr. Gynakol, 54, 2757 (1930)] as modified by McPhail [J. Physiol. (London) 83, 145 (1935)].\n(§4) ^a Immature female rabbits are primed with estrogen and dosed with\n(§5) stained and scored for endometrial proliferation according to McPhail."}, "[2]": {"tested_on": "endometrial response due to subcutaneous administration of progesterone", "assay": "in vivo antiprogestational activity, oral (Clauberg test modified by McPhail)", "set-up": "species or system rabbit", "description": "as §3, §4, §5"}, "[3]": {"conditions": "vs levonorgestrel; cited from earlier work"}, "[4]": {"conditions": "in vivo; cited from earlier work"}, "[5]": {"conditions": "relative to estradiol = 100, average of 1-3 assays"}},
  "note": "Read-outs that look alike come from different tables or passages of the source.",
  "data": [
    {"compound": "11β-(4-Dimethylaminophenyl)-17β-hydroxy-17α-azidomethyl-4,9-estradien-3-one [XVb]", "values": [
      {"measurement": "RBA for Progestin receptor", "setting": "progesterone receptor", "value": 71},
      {"measurement": "RBA for Glucocorticoid receptor", "setting": "glucocorticoid receptor", "value": 143},
      {"measurement": "RBA for Estrogen receptor", "setting": "estrogen receptor; [5]", "value": 0}
    ]},
    {"compound": "11β-(4-Dimethylaminophenyl)-17β-hydroxy-17α-methoxymethyl-4,9-estradien-3-one [XVc]", "values": [
      {"measurement": "RBA for Progestin receptor", "setting": "progesterone receptor", "value": 54},
      {"measurement": "binding to the glucocorticoid receptor, times the RBA of dexamethasone", "setting": "glucocorticoid receptor", "value": "ca. 3 times"},
      {"measurement": "RBA for Glucocorticoid receptor", "setting": "glucocorticoid receptor", "value": 413},
      {"measurement": "RBA for Estrogen receptor", "setting": "estrogen receptor; [5]", "value": 0}
    ]},
    {"compound": "CN(C)c1ccc([C@H]2C[C@@]3(C)[C@@H](CC[C@@]3(O)CC#N)[C@@H]3CCC4=CC(=O)CCC4=C32)cc1", "note": "[XVa, 17α-Cyanomethyl-11β-(4-dimethylaminophenyl)-17β-hydroxy-4,9-estradien-3-one]", "values": [
      {"measurement": "RBA for Progestin receptor", "setting": "progesterone receptor", "value": 33},
      {"measurement": "RBA for Glucocorticoid receptor", "setting": "glucocorticoid receptor", "value": 74},
      {"measurement": "RBA for Estrogen receptor", "setting": "estrogen receptor", "value": 0},
      {"measurement": "% Inhibition of Progestational Response", "setting": "[1]; total dose per rabbit 1.0 μg", "value": "7.3 ± 4.5", "unit": "%"},
      {"measurement": "% Inhibition of Progestational Response", "setting": "[1]; total dose per rabbit 5.0 μg", "value": "26.7 ± 4.5", "unit": "%"},
      {"measurement": "% Inhibition of Progestational Response", "setting": "[1]; total dose per rabbit 10.0 μg", "value": "80.5 ± 9.8", "unit": "%"},
      {"measurement": "% Inhibition of Progestational Response", "setting": "[1]; total dose per rabbit 40.0 μg", "value": "96.3 ± 3.7", "unit": "%"},
      {"measurement": "% Inhibition of Progestational Response", "setting": "[2]; total dose per rabbit 5 mg", "value": "7.8 ± 6.0", "unit": "%"},
      {"measurement": "% Inhibition of Progestational Response", "setting": "[2]; total dose per rabbit 10 mg", "value": "56.2 ± 7.1", "unit": "%"},
      {"measurement": "% Inhibition of Progestational Response", "setting": "[2]; total dose per rabbit 20 mg", "value": "79.1 ± 7.4", "unit": "%"}
    ]},
    {"compound": "11β-(4-Dimethylaminophenyl)-17β-hydroxy-17α-prop-2-yn-1-yl- 4,9-estradien-3-one [XVe]", "values": [
      {"measurement": "RBA for Progestin receptor", "setting": "progesterone receptor", "value": 23},
      {"measurement": "RBA for Glucocorticoid receptor", "setting": "glucocorticoid receptor", "value": 100},
      {"measurement": "RBA for Estrogen receptor", "setting": "estrogen receptor; [5]", "value": 0}
    ]},
    {"compound": "C[C@]12CCC3=C4CCC(=O)C=C4CC[C@H]3[C@@H]1CC[C@@]2(O)CC#N", "note": "[STS 557]", "values": [
      {"measurement": "oral potency as a gestagen relative to levonorgestrel", "setting": "[3]", "value": "ten times"},
      {"measurement": "progestational activity", "setting": "[4]", "value": "strong progestational activity"}
    ]},
    {"compound": "11β-(4-Dimethylaminophenyl)-17β-hydroxy-17α-benzyl-4,9-estradien-3-one [XVd]", "values": [
      {"measurement": "RBA for Progestin receptor", "setting": "progesterone receptor", "value": 64},
      {"measurement": "binding to the glucocorticoid receptor, times the RBA of dexamethasone", "setting": "glucocorticoid receptor", "value": "ca. 3 times"},
      {"measurement": "RBA for Glucocorticoid receptor", "setting": "glucocorticoid receptor", "value": 274},
      {"measurement": "RBA for Estrogen receptor", "setting": "estrogen receptor; [5]", "value": 0}
    ]},
    {"compound": "CC(=O)[C@H]1CC[C@H]2[C@@H]3CCC4=CC(=O)CC[C@]4(C)[C@H]3CC[C@]12C", "note": "[Progesterone, reference compound]", "values": [
      {"measurement": "RBA for Estrogen receptor", "setting": "estrogen receptor; [5]", "value": 0}
    ]},
    {"compound": "C[C@@H]1C[C@H]2[C@@H]3CCC4=CC(=O)C=C[C@]4(C)[C@@]3(F)[C@@H](O)C[C@]2(C)[C@@]1(O)C(=O)CO", "note": "[Dexamethasone, reference compound]", "values": [
      {"measurement": "RBA for Progestin receptor", "setting": "progesterone receptor", "value": 0.1}
    ]}
  ]
}
